Read-outs that look alike come from different tables or passages of the source.

The source of these data is article PMC2442655, “Structure-Activity Relationship and Substrate-Dependent Phenomena in Effects of Ginsenosides on Activities of Drug-Metabolizing P450 Enzymes” (PLoS ONE, 2008).

The target of series [1] is T1, CYP3A4 (Homo sapiens, UniProt P08684). The series is described as follows: Vivid CYP3A4 red fluorescent assay. To be noted: for Effect on CYP3A4 catalytic activity, Vivid red assay: red substrate. The protocol: (§1) The inhibition of the catalytic activities of cDNA-expressed human P450 enzymes by ginsenosides was determined using Vivid® P450 screening kits (CYP1A2 blue, CYP2C9 red, CYP2C19 blue, CYP2D6 blue, CYP3A4 green and red) according to the manufacturer's instructions (Invitrogen Corporation; Carlsbad, CA, USA).
T1 sequence (P08684 whole entry): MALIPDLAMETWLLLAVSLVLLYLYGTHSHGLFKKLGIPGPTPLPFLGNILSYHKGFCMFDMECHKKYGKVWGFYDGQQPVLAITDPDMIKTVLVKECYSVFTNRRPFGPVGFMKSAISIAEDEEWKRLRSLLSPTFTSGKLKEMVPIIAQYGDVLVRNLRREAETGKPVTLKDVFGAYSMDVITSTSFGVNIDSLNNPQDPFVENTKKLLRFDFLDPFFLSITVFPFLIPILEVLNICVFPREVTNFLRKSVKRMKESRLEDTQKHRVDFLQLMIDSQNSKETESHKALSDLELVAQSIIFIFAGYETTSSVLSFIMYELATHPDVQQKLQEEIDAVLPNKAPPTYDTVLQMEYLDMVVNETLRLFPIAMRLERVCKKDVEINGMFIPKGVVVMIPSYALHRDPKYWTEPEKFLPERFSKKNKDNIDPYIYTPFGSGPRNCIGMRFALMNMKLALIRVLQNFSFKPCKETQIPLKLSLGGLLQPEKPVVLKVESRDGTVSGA
(§2) In brief, the assays were carried out in Costar® black-wall 96-well plates with ultra thin clear bottoms (Corning Inc, Corning, NY, USA) in a kinetic assay mode. Stock solutions (10 mM) of ginsenosides in methanol were prepared and diluted to various concentrations (2.5× 100, 50, 10, 5, 1 µM). For each well, 40 µL of solution of test compounds or vehicle was incubated with 50 µL pre-mixture (mixture of BACULOSOMES® reagent, regeneration system and reaction buffer) at 37°C for 20 min. The reaction was initiated by adding 10 µL of a mixture of substrate and NADP^+ per well with a respective concentration of Vivid® substrate (Table 1). The plate was read immediately for fluorescence changes every 0.5 min at 37°C for 30 min using a FlexStation II384 fluorometric plate reader (Molecular Devices, Sunnyvale, CA, USA) with respective excitation and emission wavelengths for each P450 enzyme (Table 1). The final methanol volume in the reaction was less than or equal to 1%.

In series [2] the target is T1, CYP3A4. The series is described as follows: Carbamazepine 10,11-epoxidation in human liver microsomes. To be noted: for Effect on in vitro CBZ metabolism: 1-50 µM. As for the experimental part: (§3) The effects of the ginsenosides and sapogenins on the in vitro metabolism of CBZ were evaluated using HLM. […] Vehicle control samples were treated with methanol at a final concentration of 0.5% instead of test compounds. The reaction was initiated by adding 60 µL pre-warmed NADPH-regenerating system (50 µL BD solution A and 10 µL BD solution B). After incubation at 37°C for 30 min, the reaction system was quenched by adding 0.4 ml ice-cold acetonitrile, which was mixed well and centrifuged at 4°C (10,000 g, 10 min). The supernatant (0.4 ml) was collected, mixed with 0.8 ml acetonitrile and then centrifuged at 4°C (10,000 g, 10 min). The supernatant (30 µL) was diluted with 970 µL ddH2O and 50 µL of the mixture was injected onto the high performance liquid chromatography/tandem mass spectrometry (HPLC-MS-MS) system for analysis. […] Microsomal studies using NF as the substrate were conducted as described above for CBZ with several modifications. The NF concentration was 1 µM. The supernatant (0.4 ml) of the reaction system after quenching and centrifugation was also combined with 0.8 ml acetonitrile and centrifuged, and 10 µL of the resultant supernatant was directly injected onto the HPLC-MS-MS system for analysis.
(§4) The HPLC was performed using an Agilent 1200 system (Palo Alto, CA, USA) equipped with a binary pump and an auto-sampler. […] The elution lasted for 8 min.
(§5) The MS analysis was performed on a 4000Q Trap™ triple quadrupole mass spectrometer (Applied Biosystems/MDS Sciex Instruments, Concord, Ontario, Canada) equipped with a Turbo V ion source (TurboIonSpray™ probe was used), a Dell™ computer, and Analyst™ software. Electrospray ionization in the positive mode was employed to analyze CBZ-E and ONF, respectively. The compound parameters for CBZ-E and ONF were: declustering potential, 65 and 95 units, and collision energy, 39 and 40 units, respectively. The ion source parameters were as follows: curtain gas, 15 units; collision gas, medium; ion spray voltage, 4000 and 5000 V, respectively; temperature, 650 and 350°C, respectively; ion source gas 1, 60.0 and 65.0 units, respectively; ion source gas 2, 45.0 units.

Series [3] has as its target T1, CYP3A4. The series is described as follows: Nifedipine oxidation in human liver microsomes. To be noted: for Effect on NF metabolism: 1-50 µM; for Effect on NF in vitro metabolism: low concentrations (1∼10 µM). The protocol: as §3, §4, §5
For series [4], the target named is CYP2D6 (Homo sapiens, UniProt P10635). The series is described as follows: Vivid CYP2D6 blue fluorescent assay. The note with it: for inhibition at 30 min, 50 µM: human. The protocol:
as §1, §2

Series [5] addresses T2, CYP1A2 (Homo sapiens, UniProt P05177).
T2 sequence (P05177 1-516): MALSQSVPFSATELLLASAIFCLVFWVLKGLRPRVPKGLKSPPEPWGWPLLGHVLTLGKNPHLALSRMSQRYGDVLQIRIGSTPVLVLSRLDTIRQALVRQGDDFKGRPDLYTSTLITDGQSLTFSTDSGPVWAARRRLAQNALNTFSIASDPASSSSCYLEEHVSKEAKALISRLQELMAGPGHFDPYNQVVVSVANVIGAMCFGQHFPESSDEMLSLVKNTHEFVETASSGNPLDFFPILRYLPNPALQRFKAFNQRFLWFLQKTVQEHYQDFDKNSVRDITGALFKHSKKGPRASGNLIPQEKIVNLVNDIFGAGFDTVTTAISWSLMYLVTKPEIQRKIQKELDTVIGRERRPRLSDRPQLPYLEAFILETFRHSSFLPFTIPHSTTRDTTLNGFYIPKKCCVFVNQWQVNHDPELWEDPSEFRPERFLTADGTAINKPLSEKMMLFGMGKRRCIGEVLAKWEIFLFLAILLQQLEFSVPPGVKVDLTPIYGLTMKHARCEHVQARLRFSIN
The series is described as follows: Vivid CYP1A2 blue fluorescent assay. The note with it: for IC50: IC50 CYP1A2 blue, cDNA-expressed enzyme, Vivid blue substrate 3 µM; for inhibition at 30 min, 50 µM: human. The protocol:
as §1, §2

Series [6] has as its target T1, CYP3A4. The series is described as follows: Vivid CYP3A4 green fluorescent assay. As for the experimental part:
as §1, §2

Series [7] has as its target T3, CYP2C9 (Homo sapiens, UniProt P11712).
T3 construct: purchased Invitrogen Corporation
The series is described as follows: Vivid CYP2C9 red fluorescent assay. It is filed as in vitro ADME.
Procedure: In brief, the assays were carried out in Costar® black-wall 96-well plates with ultra thin clear bottoms (Corning Inc, Corning, NY, USA) in a kinetic assay mode. […] For each well, 40 µL of solution of test compounds or vehicle was incubated with 50 µL pre-mixture (mixture of BACULOSOMES® reagent, regeneration system and reaction buffer) at 37°C for 20 min. […] The final methanol volume in the reaction was less than or equal to 1%.

Series [8] deals with CYP2C19 (Homo sapiens, UniProt P33261). The series is described as follows: Vivid CYP2C19 blue fluorescent assay. The protocol:
as §1, §2

Series [9] concerns CYP3A4. Details: method as in PMID 15133536. The note with it: read-out: IC50 CYP3A4-mediated testosterone 6β-hydroxylation; cited from earlier work.
Setting [10] is: recombinant (cDNA-expressed) CYP2D6 BACULOSOMES, probe Vivid blue substrate 10 µM.
Where [11] appears, read: recombinant (cDNA-expressed) CYP1A2 BACULOSOMES, probe Vivid blue substrate 3 µM.
The mark [12] stands for this setting: cDNA-expressed enzyme, Vivid red substrate 2 µM, maximum concentration 50 µM, read-out: IC50 CYP2C9 red.

Chain of CYP2C19 (P33261 whole entry): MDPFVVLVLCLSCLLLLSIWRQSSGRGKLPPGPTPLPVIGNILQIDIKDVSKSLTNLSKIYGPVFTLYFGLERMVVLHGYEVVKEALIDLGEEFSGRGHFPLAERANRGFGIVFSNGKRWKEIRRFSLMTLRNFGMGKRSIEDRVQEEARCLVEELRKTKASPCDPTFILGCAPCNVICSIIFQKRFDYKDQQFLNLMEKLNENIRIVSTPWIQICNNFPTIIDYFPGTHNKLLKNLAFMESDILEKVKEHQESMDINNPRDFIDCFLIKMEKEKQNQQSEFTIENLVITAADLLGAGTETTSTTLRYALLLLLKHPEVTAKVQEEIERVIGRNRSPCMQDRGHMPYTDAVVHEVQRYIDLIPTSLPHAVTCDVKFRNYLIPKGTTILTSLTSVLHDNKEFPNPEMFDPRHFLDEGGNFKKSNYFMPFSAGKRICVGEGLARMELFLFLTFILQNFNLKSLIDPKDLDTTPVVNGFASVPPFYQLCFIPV
T3 sequence (P11712 whole entry): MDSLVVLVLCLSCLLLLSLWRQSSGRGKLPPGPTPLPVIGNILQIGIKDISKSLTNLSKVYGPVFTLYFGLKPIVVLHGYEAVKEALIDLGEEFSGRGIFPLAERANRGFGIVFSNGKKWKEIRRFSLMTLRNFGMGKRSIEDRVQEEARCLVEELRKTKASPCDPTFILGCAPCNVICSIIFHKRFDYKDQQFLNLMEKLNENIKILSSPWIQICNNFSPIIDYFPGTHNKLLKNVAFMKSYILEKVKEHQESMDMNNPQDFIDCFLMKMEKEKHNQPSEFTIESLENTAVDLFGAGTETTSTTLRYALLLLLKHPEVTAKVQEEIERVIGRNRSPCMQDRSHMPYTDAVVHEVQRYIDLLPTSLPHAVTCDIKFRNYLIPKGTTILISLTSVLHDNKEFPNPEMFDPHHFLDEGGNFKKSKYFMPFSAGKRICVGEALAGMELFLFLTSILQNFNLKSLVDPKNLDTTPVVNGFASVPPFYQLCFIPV
Chain of CYP2D6 (P10635 whole entry): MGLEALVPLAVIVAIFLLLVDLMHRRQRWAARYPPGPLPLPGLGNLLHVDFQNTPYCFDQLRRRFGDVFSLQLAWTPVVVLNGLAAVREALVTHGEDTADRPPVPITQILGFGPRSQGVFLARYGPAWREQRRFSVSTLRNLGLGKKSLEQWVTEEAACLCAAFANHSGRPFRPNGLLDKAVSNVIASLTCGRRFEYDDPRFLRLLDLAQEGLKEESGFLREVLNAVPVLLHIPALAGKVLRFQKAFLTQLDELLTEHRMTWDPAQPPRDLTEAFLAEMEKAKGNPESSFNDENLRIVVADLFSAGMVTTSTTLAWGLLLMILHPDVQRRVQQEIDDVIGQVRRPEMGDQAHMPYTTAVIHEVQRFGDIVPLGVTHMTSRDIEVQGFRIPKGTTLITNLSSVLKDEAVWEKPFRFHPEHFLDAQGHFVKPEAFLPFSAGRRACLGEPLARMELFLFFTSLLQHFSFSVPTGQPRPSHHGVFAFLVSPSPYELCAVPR

For the compound `CC(C)(O)CCC[C@@](C)(O)[C@H]1CC[C@]2(C)[C@@H]1[C@H](O)C[C@@H]1[C@@]3(C)CC[C@H](O)C(C)(C)[C@@H]3CC[C@]12C` [20(R)-25-OH-PPD, 20(R)-dammarane-3β, 12β, 20, 25-tetrol], the “Activation of CYP3A4, Vivid red assay (fold)” value in series [1] (10 µM) is “about two-fold”. In addition, in series [1], the “Effect on CYP3A4 catalytic activity, Vivid red assay” value (shortened to “Effect on CYP3A4 catalytic activity”) was “activated the catalytic activity of CYP3A4”. Moreover, the “Effect on in vitro CBZ metabolism” value in [2] was “substantially activated”. In addition, in series [3], the “Effect on NF metabolism” value was “negligible”. In addition, the IC50 in series [4] was greater than 50 µM; in series [5], greater than 100 µM; in series [6], 25.6 µM; in series [7] (setting [12]), 7.6 µM; in series [8] it was 69.1 µM. For the same compound, the inhibition at 30 min, 50 µM in series [4] (setting [10]) was found to be 31.8%; in [5] (setting [11]) it was 22.8%.

Regarding `COC(C)(C)CCC[C@](C)(O)[C@H]1CC[C@]2(C)[C@@H]1[C@H](O)C[C@@H]1[C@@]3(C)CC[C@H](O)C(C)(C)[C@@H]3CC[C@]12C` [25-OCH3-PPD, 20(S)-25-methoxyl-dammarane-3β, 12β, 20-triol], the IC50 in series [1] is greater than 100 µM; in series [4], greater than 50 µM; in series [5] it was greater than 100 µM; in series [6], 17.7 µM; in [7] (setting [12]), 7.5 µM; in series [8], 26.5 µM. Further, in [1] (10 µM), the “Activation of CYP3A4, Vivid red assay” value is given as “about 20%”. In addition, the “Effect on CYP3A4, Vivid red assay” value in series [1] (high concentrations) was “weakly inhibited”. Besides, the inhibition at 30 min, 50 µM in series [1] (human, recombinant (cDNA-expressed) CYP3A4 BACULOSOMES, probe Vivid red substrate 3 µM) worked out at 25.4%; in series [4] (setting [10]) it was 12.6%; in series [5] (setting [11]), 4.8%. Also, the “Effect on in vitro CBZ metabolism” value in [2] is “substantially activated”. For the same compound, the “Effect on NF metabolism” value in [3] is given as “negligible”.

On to `CC(C)=CCC[C@](C)(O)[C@H]1CC[C@]2(C)[C@@H]1[C@H](O)C[C@@H]1[C@@]3(C)CC[C@H](O)C(C)(C)[C@@H]3CC[C@]12C` [PPD, protopanaxadiol], for which the IC50 in series [1] is 43.1 µM; in [4], greater than 50 µM; in series [5], 86.6 µM; in [6], 9.3 µM; in series [7] (setting [12]), 8 µM; in series [8] it was 52.6 µM. For the same compound, the “Effect on CYP3A4 catalytic activity” value in series [1] is reported as “inhibited CYP3A4 in a dose-dependent manner”. In addition, in series [2] (10 µM), the “Activation of CBZ metabolism (fold)” value is given as “about five-fold”. The “Effect on in vitro CBZ metabolism” value in [2] is recorded as “substantially activated”. Moreover, the “Effect on NF in vitro metabolism” value in series [3] is given as “weak activation effect”. The inhibition at 30 min, 50 µM in series [4] (setting [10]) amounted to 25.9%.

On to `CC(C)=CCC[C@](C)(O[C@@H]1O[C@H](CO)[C@@H](O)[C@H](O)[C@H]1O)[C@H]1CC[C@]2(C)[C@@H]1[C@H](O)C[C@@H]1[C@@]3(C)CC[C@H](O[C@@H]4O[C@H](CO)[C@@H](O)[C@H](O)[C@H]4O[C@@H]4O[C@H](CO)[C@@H](O)[C@H](O)[C@H]4O)C(C)(C)[C@@H]3CC[C@]12C` [Rd], for which the IC50 was 72.7 µM in series [1]; greater than 50 µM in [4]; 62 µM in series [9]; greater than 100 µM in series [5]; greater than 100 µM in series [6]; greater than 50 µM in series [7] (setting [12]). The compound also came in with an IC50 in series [8] greater than 100 µM. Also, the inhibition at 30 min, 50 µM in [4] (setting [10]) came to 18.1%; in series [5] (setting [11]) it was 38.3%; in series [6] (human, recombinant (cDNA-expressed) CYP3A4 BACULOSOMES, probe Vivid green substrate 2 µM), 12.6%; in series [7] (human, recombinant (cDNA-expressed) CYP2C9 BACULOSOMES, probe Vivid red substrate 2 µM), 34.8%; in [8] (human, recombinant (cDNA-expressed) CYP2C19 BACULOSOMES, probe Vivid blue substrate 10 µM), 27.7%.

For `CC(C)=CCC[C@](C)(O)[C@H]1CC[C@]2(C)[C@@H]1[C@H](O)C[C@@H]1[C@@]3(C)CC[C@H](O[C@@H]4O[C@H](CO)[C@@H](O)[C@H](O)[C@H]4O)C(C)(C)[C@@H]3CC[C@]12C` [Rh2], the IC50 was 9.8 µM in [1]; greater than 50 µM in [4]; greater than 100 µM in [5]; 47 µM in series [6]; 30.9 µM in series [7]; 49.9 µM in series [8]. In series [1], the “Effect on CYP3A4 catalytic activity” value is on record as “inhibited CYP3A4 in a dose-dependent manner”. The “Effect on in vitro CBZ metabolism” value in series [2] is recorded as “did not significantly alter”. Besides, the “Effect on CYP3A4-catalyzed NF oxidation” value in [3] (high concentration (50 µM)) is recorded as “weakly inhibited”. Besides, the “Effect on NF in vitro metabolism” value in [3] is reported as “weak activation effect”. In addition, the inhibition at 30 min, 50 µM came to 20.3% in series [4] and 39.4% in series [5].

With `O=c1cc(-c2ccccc2)oc2c1ccc1ccccc12` [α-naphthoflavone, reference compound], in series [2] (10 µM), the “Increase of CBZ metabolism vs vehicle control” value was found to be 772%. The “Effect on in vitro NF metabolism” value in series [3] (10 µM) is “did not significantly alter”.

Usually IC50 stands for the midpoint of a concentration-inhibition curve. A word on the inhibition: it is the share of the control response that was lost under treatment.
